# Publication PMC11662004 (Communications Chemistry, 2024)
# Values joined by “and” are separate entries in the source; they are usually repeats but may differ in a detail not shown here. Equal entries are not always repeated. Where two headings read alike, the source gives them in different places.
# Assays:
# NgTet1 [1] = molecular target: T1, NgTet1 (Naegleria gruberi, UniProt D2W6T1); type: biochemical; settings: for 2OG Concentration / Succinate Concentration: 20 μM 5HC DNA
# T1 construct: His6-tagged full-length Naegleria gruberi NgTet1 (321 a. a.) protein with a thrombin cleavage site; made in house; host or cells: E. coli BL21(DE3)
# T1 sequence (D2W6T1 1-321): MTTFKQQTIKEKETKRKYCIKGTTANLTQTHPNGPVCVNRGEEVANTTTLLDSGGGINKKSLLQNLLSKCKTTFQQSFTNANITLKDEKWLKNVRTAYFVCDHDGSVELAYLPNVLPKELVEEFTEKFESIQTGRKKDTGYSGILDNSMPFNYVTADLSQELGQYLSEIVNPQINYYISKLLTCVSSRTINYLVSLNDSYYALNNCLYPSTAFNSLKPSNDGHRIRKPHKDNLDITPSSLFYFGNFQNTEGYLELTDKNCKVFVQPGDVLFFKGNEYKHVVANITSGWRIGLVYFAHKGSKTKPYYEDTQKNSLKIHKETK
# Protocol: Double-stranded 12 bp DNA oligomers were added at a final concentration of 20 µM. […]
# Double-stranded DNA oligomers were added at a final concentration of 20 µM. […]
# All ^1H NMR spectra were recorded at 25 °C using D2O as a reference for internal deuterium lock on a Bruker Avance III 700 MHz equipped with an inverse TCI cryoprobe in 3 or 5 mm diameter tubes with a total sample volume of 160 or 565 μL, respectively. The water signal was reduced using Perfect Echo excitation sculpting suppression. Chemical shifts are reported in ppm relative to D2O (δH = 4.70 ppm).
# Spectrometer settings were determined using a control sample containing all reaction components excluding enzyme. TET enzyme was added to an identical sample, and the resulting assay mixture was transferred to an NMR tube before deposition into the instrument. […] Spectrum recordings were carried out consecutively without delay. Data were processed using automated routines on MestReNova v14.2.0; signals of interest were integrated with absolute intensity scaling. ^1H NMR time courses reported in figures are representative results from two or three independent replicates.
# NgTet1 [2] = molecular target: T1, NgTet1; assay: biochemical; settings: for normalised activity: NgTet1, NMR, 2 independent replicates
substance,measurement,setting,value
"5HC DNA: non-methylated DNA of the same sequence, 5'-ACC ACC GGT GGT-3', non-substrate (DNA ACCACCGGTGGT; DNA, backbone not given here)",2OG Concentration,NgTet1 [1]; time 6.31667 min,88.5781 µM
same,Succinate Concentration,NgTet1 [1]; time 6.31667 min,11.4219 µM
same,2OG Concentration,NgTet1 [1]; time 9.38333 min,79.2717 µM
same,Succinate Concentration,NgTet1 [1]; time 9.38333 min,20.7283 µM
same,2OG Concentration,NgTet1 [1]; time 12.45 min,72.6874 µM
same,Succinate Concentration,NgTet1 [1]; time 12.45 min,27.3126 µM
same,2OG Concentration,NgTet1 [1]; time 15.5167 min,67.5286 µM
same,Succinate Concentration,NgTet1 [1]; time 15.5167 min,32.4714 µM
same,2OG Concentration,NgTet1 [1]; time 18.6 min,63.1853 µM
same,Succinate Concentration,NgTet1 [1]; time 18.6 min,36.8147 µM
same,V0 NgTet1,"NgTet1 [1]; 20 µM DNA, 100 μM 2OG, 5 μM NgTet1",1.30 µM/min
same,2-OG turnover rate,"NgTet1 [1]; 2-OG 50 uM, 20 µM DNA",1.2756 µM/min and 1.3302 µM/min
same,2-OG turnover rate,"NgTet1 [1]; 2-OG 100 uM, 20 µM DNA",2.0544 µM/min and 2.2614 µM/min
same,2-OG turnover rate,"NgTet1 [1]; 2-OG 200 uM, 20 µM DNA",3.7602 µM/min and 3.5166 µM/min
same,2-OG turnover rate,"NgTet1 [1]; 2-OG 400 uM, 20 µM DNA",4.4538 µM/min and 4.2732 µM/min
same,2-OG turnover rate,"NgTet1 [1]; 2-OG 700 uM, 20 µM DNA",4.9836 µM/min and 5.0838 µM/min
same,2-OG turnover rate,"NgTet1 [1]; 2-OG 1000 uM, 20 µM DNA",5.3268 µM/min and 5.3442 µM/min
same,2-OG turnover rate,"NgTet1 [1]; 2-OG 2000 uM, 20 µM DNA",5.8116 µM/min and 5.7954 µM/min
same,2-OG turnover rate,"NgTet1 [1]; 2-OG 4000 uM, 20 µM DNA",6.75 µM/min and 6.036 µM/min
same,succinate,"NgTet1 [1]; n = 1, time (min) 5HC DNA 5.9, AT DNA 5.81667, 5mC DNA 5.78333",7.407 µM
same,succinate,"NgTet1 [1]; n = 1, time (min) 5HC DNA 8.98333, AT DNA 8.9, 5mC DNA 8.86667",12.5672 µM
same,succinate,"NgTet1 [1]; n = 1, time (min) 5HC DNA 12.0667, AT DNA 11.9833, 5mC DNA 11.95",16.4606 µM
same,succinate,"NgTet1 [1]; n = 1, time (min) 5HC DNA 15.1333, AT DNA 15.0667, 5mC DNA 15.0333",19.1176 µM
same,succinate,"NgTet1 [1]; n = 1, time (min) 5HC DNA 18.2167, AT DNA 18.1333, 5mC DNA 18.1167",21.6247 µM
same,succinate,"NgTet1 [1]; n = 1, time (min) 5HC DNA 21.3667, AT DNA 21.2333, 5mC DNA 21.2",24.6175 µM
same,succinate,"NgTet1 [1]; n = 1, time (min) 5HC DNA 24.45, AT DNA 24.3167, 5mC DNA 24.2833",26.0885 µM
same,succinate,"NgTet1 [1]; n = 1, time (min) 5HC DNA 27.5333, AT DNA 27.3833, 5mC DNA 27.3667",28.2137 µM
same,succinate,"NgTet1 [1]; n = 1, time (min) 5HC DNA 30.6, AT DNA 30.4667, 5mC DNA 30.45",29.4575 µM
same,succinate,"NgTet1 [1]; n = 1, time (min) 5HC DNA 33.6833, AT DNA 33.55, 5mC DNA 33.5333",31.2095 µM
same,succinate,"NgTet1 [1]; n = 1, time (min) 5HC DNA 36.7667, AT DNA 36.6333, 5mC DNA 36.6167",32.5108 µM
same,succinate,"NgTet1 [1]; n = 1, time (min) 5HC DNA 39.85, AT DNA 39.7167, 5mC DNA 39.7",33.8071 µM
same,succinate,"NgTet1 [1]; n = 1, time (min) 5HC DNA 42.9333, AT DNA 42.8, 5mC DNA 42.7833",34.7457 µM
same,succinate,"NgTet1 [1]; n = 1, time (min) 5HC DNA 46.0167, AT DNA 45.8833, 5mC DNA 45.8667",35.7895 µM
same,succinate,"NgTet1 [1]; n = 1, time (min) 5HC DNA 49.0833, AT DNA 48.9667, 5mC DNA 48.95",37.2861 µM
same,succinate,"NgTet1 [1]; n = 1, time (min) 5HC DNA 52.1667, AT DNA 52.05, 5mC DNA 52.0333",38.1768 µM
same,succinate,"NgTet1 [1]; n = 1, time (min) 5HC DNA 55.25, AT DNA 55.1167, 5mC DNA 55.1167",38.5101 µM
same,succinate,"NgTet1 [1]; n = 1, time (min) 5HC DNA 58.3333, AT DNA 58.2, 5mC DNA 58.2",39.4428 µM
same,succinate,"NgTet1 [1]; n = 1, time (min) 5HC DNA 61.4, AT DNA 61.2833, 5mC DNA 61.2833",40.1071 µM
same,succinate,"NgTet1 [1]; n = 1, time (min) 5HC DNA 64.4833, AT DNA 64.3833, 5mC DNA 64.35",40.323 µM
same,succinate,"NgTet1 [1]; n = 2, time (min) 5HC DNA 5.81667, AT DNA 5.61667, 5mC DNA 6.08333",6.9553 µM
same,succinate,"NgTet1 [1]; n = 2, time (min) 5HC DNA 8.88333, AT DNA 8.7, 5mC DNA 9.16667",12.0978 µM
same,succinate,"NgTet1 [1]; n = 2, time (min) 5HC DNA 12.0333, AT DNA 11.7833, 5mC DNA 12.25",15.5692 µM
same,succinate,"NgTet1 [1]; n = 2, time (min) 5HC DNA 15.1167, AT DNA 14.8667, 5mC DNA 15.3167",18.665 µM
same,succinate,"NgTet1 [1]; n = 2, time (min) 5HC DNA 18.1833, AT DNA 17.9333, 5mC DNA 18.4",21.5442 µM
same,succinate,"NgTet1 [1]; n = 2, time (min) 5HC DNA 21.2667, AT DNA 21.0167, 5mC DNA 21.4833",23.7344 µM
same,succinate,"NgTet1 [1]; n = 2, time (min) 5HC DNA 24.35, AT DNA 24.1, 5mC DNA 24.5667",25.3146 µM
same,succinate,"NgTet1 [1]; n = 2, time (min) 5HC DNA 27.4333, AT DNA 27.1833, 5mC DNA 27.65",27.7156 µM
same,succinate,"NgTet1 [1]; n = 2, time (min) 5HC DNA 30.5167, AT DNA 30.2667, 5mC DNA 30.7333",29.219 µM
same,succinate,"NgTet1 [1]; n = 2, time (min) 5HC DNA 33.6, AT DNA 33.35, 5mC DNA 33.8167",30.6366 µM
same,succinate,"NgTet1 [1]; n = 2, time (min) 5HC DNA 36.6833, AT DNA 36.4333, 5mC DNA 36.9",31.7592 µM
same,succinate,"NgTet1 [1]; n = 2, time (min) 5HC DNA 39.7667, AT DNA 39.5167, 5mC DNA 39.9833",33.6089 µM
same,succinate,"NgTet1 [1]; n = 2, time (min) 5HC DNA 42.8333, AT DNA 42.6, 5mC DNA 43.0667",34.5619 µM
same,succinate,"NgTet1 [1]; n = 2, time (min) 5HC DNA 45.9167, AT DNA 45.6833, 5mC DNA 46.15",35.6503 µM
same,succinate,"NgTet1 [1]; n = 2, time (min) 5HC DNA 49, AT DNA 48.7667, 5mC DNA 49.2333",37.1492 µM
same,succinate,"NgTet1 [1]; n = 2, time (min) 5HC DNA 52.0833, AT DNA 51.85, 5mC DNA 52.3167",37.4628 µM
same,succinate,"NgTet1 [1]; n = 2, time (min) 5HC DNA 55.1667, AT DNA 54.9333, 5mC DNA 55.4",38.3288 µM
same,succinate,"NgTet1 [1]; n = 2, time (min) 5HC DNA 58.25, AT DNA 58.0167, 5mC DNA 58.4833",38.622 µM
same,succinate,"NgTet1 [1]; n = 2, time (min) 5HC DNA 61.3333, AT DNA 61.1, 5mC DNA 61.5667",40.1844 µM
same,succinate,"NgTet1 [1]; n = 2, time (min) 5HC DNA 64.4167, AT DNA 64.1667, 5mC DNA 64.65",40.2655 µM
same,Relative V0 NgTet1,NgTet1 [1]; relative to reactions without DNA,3.6
same,Vmax^app,NgTet1 [1]; with 20 µM 5HC DNA,6.47 µM/min
same,kcat^app,NgTet1 [1]; with 20 µM 5HC DNA,1.30 min⁻¹
same,uncoupled 2OG decarboxylase activity relative to control,"NgTet1 [2]; 1.2 equivalents (6.17 μM) of ligand, no 5mC DNA substrate",188%
same,normalised activity,NgTet1 [2]; -Log[inhibitor] (M) 3.77815,173.555% and 199.834%
same,normalised activity,NgTet1 [2]; -Log[inhibitor] (M) 4.25527,239.054% and 238.734%
same,normalised activity,NgTet1 [2]; -Log[inhibitor] (M) 4.73239,235.651% and 234.615%
same,normalised activity,NgTet1 [2]; -Log[inhibitor] (M) 5.20951,188.852% and 186.764%
same,normalised activity,NgTet1 [2]; -Log[inhibitor] (M) 5.68664,131.036% and 130.504%
same,normalised activity,NgTet1 [2]; -Log[inhibitor] (M) 6.16376,99.9166% and 102.373%
same,normalised activity,NgTet1 [2]; -Log[inhibitor] (M) 6.64088,99.5022% and 101.543%
same,normalised activity,NgTet1 [2]; -Log[inhibitor] (M) 7.118,100.648% and 101.556%
same,normalised activity,NgTet1 [2]; -Log[inhibitor] (M) 7.59512,99.7851% and 102.052%
same,normalised activity,NgTet1 [2]; -Log[inhibitor] (M) 8.07224,101.874% and 100.284%
